# Key:
# obesity model mice [1] = test: Liver morphology, weight and histological analysis, obesity model mice, intravenous FBP-8; format: in vivo, C57BL/6 mice
# Procedure: (§1) All animal experiments performed for the present invention were approved by the Institutional Animal Care and Use Committee of Hanyang University. […] Thereafter, depending on the experimental group, 60 μg/one time of FBP8 were administered by intravenous injection twice a week for a total of 5 weeks (FIG. 13), or FBP7 was administered by subcutaneous injection twice a day.
# (§2) Liver tissue and white adipose tissue sections were stained with hematoxylin & eosin and then histologically analyzed under an optical microscope.
# 3T3L1 cell line [2] = test: Apoptosis level in 3T3L1 cell line treated with FasL and peptide (annexin V flow cytometry); format: cell-based, murine; settings: differentiated 3T3L1 treated with Fas ligand and peptide
# Procedure: (§3) The 3T3L1 cell line was cultured in a DMEM culture medium containing 10% FBS, 1% penicillin, 1% streptomycin, and 25 mM glucose. The 3T3L1 cell line was aliquoted into the above DMEM culture solution at a concentration of 2×10^5 cells/ml to induce adipocyte maturation for 3 days, and then replaced with a culture solution containing insulin to induce adipocyte maturation again for 3 days. Thereafter, the 3T3L1 cell line was further cultured in the above DMEM culture solution for 2 days to achieve complete maturation of adipocytes.
# The 3T3L1 cell line was treated with a Fas ligand (FasL) at a concentration of 500 ng/ml to induce apoptosis, and FBP signal blocking peptides (FBP-8. FBP-A and FBP-7) and CtrFBP bound to Alexa647 were treated, respectively. After 4 hours of peptide treatment, cells were washed with DPBS and treated with FITC-bound annexin V (BD Pharmingen) to analyze the apoptosis inhibitory effect by a flow cytometer.
# obesity model mice [3] = test: TUNEL staining of dead cells, obesity model mice, intravenous FBP-8; format: in vivo, C57BL/6 mice; settings: intravenous twice a week for 5 weeks
# Procedure: as §1
# Furthermore, a terminal deoxynucleotidyl transferase dUTP nick end labeling (TUNEL) analysis for each tissue was performed with an in situ cell death detection kit (Millipore, USA). Thereafter, the fluorescence signals were analyzed under a TCS-SP5 confocal microscope by staining the nuclei with Hoechst 33342, and the fluorescence signals of each cell were analyzed with the Image J program.
# Obesity model mice were produced by feeding normal mice a high fat diet for 8 weeks, and FBP-8 was administered by intravenous injection twice a week for a total of 5 weeks (FIG. 13). After five weeks, the obesity model mice were sacrificed to isolate white adipose tissues and liver tissues and analyze the proportion of dead cells by TUNEL staining.
# obesity model mice [4] = test: Crown-like structure (CLS) in white adipose tissues, obesity model mice, intravenous FBP-8; format: in vivo, C57BL/6 mice; settings: compared to negative control (CtrFBP)
# Procedure: as §1, §2
# 3T3L1 cell line [5] = test: Free fatty acid (FFA) release into 3T3L1 cell culture solution; format: cell-based, murine; settings: 3T3L1 treated with FasL and FBP-8
# Procedure: as §3
# 3T3L1 cell line [6] = test: Inflammation-related cytokines in 3T3L1 cell culture solution (ELISA); format: cell-based, murine; settings: 3T3L1 treated with FasL and FBP-8
# Procedure: as §3
# The cytokine levels of serum and tissues were analyzed with an ELISA kit (eBioscience, USA), and the triglyceride levels of liver tissues were confirmed with a triglyceride assay kit (Cayman, USA).
# 3T3L1 cell line [7] = test: Cytotoxicity by CCK-8 analysis kit in 3T3L1 cell line; format: cell-based, murine; settings: differentiated 3T3L1 cell lines, 100 μM to 1000 μM, 24 hours
# Procedure: as §3
# The cytotoxicity experiments of the peptides described in 1. above were performed by a CCK-8 analysis kit (Dojindo Laboratories, Japan). The 3T3L1 cell line was treated with peptides at various concentrations (uM) and cytotoxicity was analyzed after 24 hours.
# [8] = Delivery of fluorescently labeled peptide to tissues of obesity model mice (HFD); format: in vivo, C57BL/6 mice
# Procedure: as §1
# 100 μg of an Alexa 647-bound peptide was administered by intravenous injection into obesity model mice, and after 12, 24, and 48 hours, the tissues were isolated, and the fluorescence signals in each tissue were analyzed with an image station fluorescence analyzer (Carestream). After the fluorescence signal analysis, the relative fluorescence intensity of each tissue was compared using an ImageJ program provided by NIH.
# In addition, 100 μg of Alexa 488-bound FBP was administered by intravenous injection into obesity model mice to confirm whether cell units of peptides were delivered to liver tissues, and frozen tissue sections were produced by isolating the liver tissues after 12, 24, and 48 hours. Thereafter, the nuclei were stained with Hoechst 33342, and the fluorescence signals were analyzed under a TCS-SP5 confocal microscope.
# Based on the Fas-specific binding ability of FBP-8 confirmed by the experiments, it was confirmed whether FBP-8 could be specifically delivered to liver tissues or adipose tissues when systemically delivered by intravenous injection or subcutaneous injection. Fluorescently labeled FBP-8 was injected by intravenous injection or subcutaneous injection into obesity model mice in the high fat diet group, and after 24 and 48 hours, the fluorescence distribution was investigated by isolating each organ.
# Fas = target: T1, Fas (Mus musculus, UniProt P25446); test: Binding of fluorescently labeled peptide to Fas in liver and white adipose tissue sections of HFD mice; settings: sections from high fat diet (HFD) group
# T1 construct: from tissue; host or cells: liver and white adipose tissue sections of high-fat-diet C57BL/6 mice
# T1 sequence (P25446 22-327): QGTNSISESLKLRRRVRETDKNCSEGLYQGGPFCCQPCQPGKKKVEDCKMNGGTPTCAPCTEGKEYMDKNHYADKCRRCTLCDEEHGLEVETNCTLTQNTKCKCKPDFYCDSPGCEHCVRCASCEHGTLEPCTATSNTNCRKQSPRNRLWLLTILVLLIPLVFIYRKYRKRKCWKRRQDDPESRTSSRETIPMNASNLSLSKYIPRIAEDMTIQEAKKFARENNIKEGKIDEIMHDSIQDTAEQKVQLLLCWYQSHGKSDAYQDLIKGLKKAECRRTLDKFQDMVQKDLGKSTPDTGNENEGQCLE
# Procedure: After the animal experiment was completed, mice were sacrificed to isolate liver tissues and white adipose tissues and prepare tissue sections. The prepared liver tissue and white adipose tissue sections were treated with an antigen retrieval buffer at 95° C. for 25 minutes and then cooled at room temperature. Thereafter, the tissue sections were treated with Tris Based Saline+Tween20 (TBST) containing 1% bovine serum albumin (BSA), 10% goat serum and 0.05% Tween 20 to undergo a blocking process, and were reacted with a Fas receptor-specific primary antibody at 4° C. for 18 hours. Thereafter, tissue sections were washed with TBST and reacted with a FITC-bound secondary antibody at room temperature for 2 hours.
# In addition, in order to examine the tissue-binding ability of the peptide, the peptide to which Alexa 488 was bound was reacted with the primary antibody at 4° C. for 18 hours. The nuclei were stained with Hoechst 33342 (GE Healthcare), washed with TBST, and then confirmed.
# The fluorescence signal of each tissue section was analyzed under a TCS-SP5 confocal microscope (Leica, Germany).
# [9] = compared to negative control (CtrFBP)
# [10] = intravenous, liver tissue sections
sequence,measurement,setting,value
YCDEHFCY (Fas binding peptide-8 (FBP-8)),damage to the liver tissue (histological analysis),obesity model mice [1],inhibited
same,size of the liver tissue,obesity model mice [1]; [9],smaller
same,weight of the liver tissue,obesity model mice [1]; [9],lighter
same,apoptosis level,3T3L1 cell line [2],14±2.98%
same,proportion of dead cells in liver tissue (TUNEL),obesity model mice [3],9±2.37%
same,proportion of dead cells in white adipose tissue (TUNEL),obesity model mice [3],31+2.37%
same,crown-like structure (CLS) in white adipose tissues,obesity model mice [4],remarkably reduced
same,extracellular release of fatty acids (FFA),3T3L1 cell line [5],significantly inhibited
same,concentrations of IL-6 and MCP-1 in the cell culture solution,3T3L1 cell line [6],reduces
same,cytotoxicity,3T3L1 cell line [7],little cytotoxicity was observed
same,tissue delivery after intravenous injection,"[8]; intravenous, 24 and 48 hours",specifically delivered to the liver tissue and white adipose tissue
same,time from which peptide was delivered to the liver tissue after intravenous injection,[8]; [10],12 h
same,time until which peptide remained in the liver tissue after intravenous injection,[8]; [10],48 h
same,time remaining in the liver tissue after subcutaneous injection,[8]; subcutaneous,≥ 48 h
same,tissue delivery after subcutaneous injection,"[8]; subcutaneous, compared to CtrFBP, 24 and 48 hours",specifically delivered to the liver tissue
same,co-staining with Fas-specific antibody in liver and white adipose tissue sections,Fas,the stained sites coincided

# Source: patent US20220088115A1, “PHARMACEUTICAL COMPOSITION, COMPRISING INHIBITORY PEPTIDE AGAINST FAS SIGNALING, FOR PREVENTION OR TREATMENT OF OBESITY, FATTY LIVER, OR STEATOHEPATITIS” (SIGNET BIOTECH INC., priority 2018, published 2022)
